The target in assay [1] is Mtb FecB (Rv3044) (Mycobacterium tuberculosis, UniProt O53291). In words: biochemical. The format is binding.
Assay [2] deals with Mtb FecB2 (Rv0265c) (Mycobacterium tuberculosis, UniProt L7N6B2). The format is binding. Particulars: FecB2-His (with His tag); 100 nM protein, 50 mM Tris-HCl pH 7.4, 150 mM NaCl, emission 335 nm.

“Also recorded” adds a separate entry of the source. Read-outs that look alike come from different tables or passages of the source.

The results in this text go back to PMC10553834, “Differentiating the roles of Mycobacterium tuberculosis substrate binding proteins, FecB and FecB2, in iron uptake” (PLOS Pathogens, 2023).

Chain of Mtb FecB (Rv3044) (O53291 entry or part of it): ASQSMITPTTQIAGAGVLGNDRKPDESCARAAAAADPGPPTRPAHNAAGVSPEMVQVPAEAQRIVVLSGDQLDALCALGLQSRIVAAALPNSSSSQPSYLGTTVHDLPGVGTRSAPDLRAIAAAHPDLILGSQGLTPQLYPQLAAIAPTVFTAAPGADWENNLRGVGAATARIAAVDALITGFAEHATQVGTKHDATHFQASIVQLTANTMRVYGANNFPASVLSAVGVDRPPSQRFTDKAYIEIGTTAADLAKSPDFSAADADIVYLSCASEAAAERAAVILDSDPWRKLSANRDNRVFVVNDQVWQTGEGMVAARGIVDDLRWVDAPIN
Chain of Mtb FecB2 (Rv0265c) (L7N6B2 39-330 limits assumed): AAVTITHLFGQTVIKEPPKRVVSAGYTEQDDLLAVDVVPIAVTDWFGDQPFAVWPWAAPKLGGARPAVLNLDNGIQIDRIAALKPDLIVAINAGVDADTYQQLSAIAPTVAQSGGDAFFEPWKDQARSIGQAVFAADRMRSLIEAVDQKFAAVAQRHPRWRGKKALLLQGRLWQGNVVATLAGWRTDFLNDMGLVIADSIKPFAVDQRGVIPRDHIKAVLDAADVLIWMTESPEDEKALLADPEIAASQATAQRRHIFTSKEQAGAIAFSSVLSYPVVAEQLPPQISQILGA

As for ferric-pyoverdines, in assay [1], the “Fold weaker affinity to FecB compared to Fe-cMB” value (shortened to “Fold weaker affinity to FecB”) was “at least 40 fold” and the Kd was over 45000 nM.

ferric-mycobactin J [Fe-MBJ]: in assay [1], the “Fold weaker affinity to FecB” value is on record as about 20 fold and the Kd is about 11000 nM. For the same compound, in assay [1] (listed as Fe-mycobactin J), the equilibrium dissociation constant (Kd) amounted to 11300 ± 100 nM.

As for `O=C(N[C@H]1COC(=O)[C@@H](NC(=O)c2cccc(O)c2O)COC(=O)[C@@H](NC(=O)c2cccc(O)c2O)COC1=O)c1cccc(O)c1O` [ferric-enterobactin], in assay [1], the “Fold weaker affinity to FecB” value is on record as “at least 40 fold” and binding was put at a Kd of 26100 nM.

For the compound ferric-carboxymycobactin [Fe-cMB], the Kd result in assay [2] was “could not be determined; also recorded: too weak to be determined”; in assay [1], 550 nM; in assay [1] (FecB without His tag (tagless), 100 nM protein, 50 mM Tris-HCl pH 7.4, 150 mM NaCl, emission 335 nm), 680 nM; in assay [1] (FecB-His (with His tag, native), 100 nM protein, 50 mM Tris-HCl pH 7.4, 150 mM NaCl, emission 335 nm), 630 ± 120 nM.

For carboxymycobactin [apo-cMB], in assay [1], the “Fold weaker affinity to FecB” value is given as about 4 fold and binding was put at a Kd of 2900 ± 100 nM.
